Test results taken from patent US12448400B2, “KRAS G12D modulating compounds” (priority 2023, dated 2025).

test system: GP2D (KRAS G12D) cells; experiment: 2D cell viability assay (CellTiter-Glo); format: cell-based; details: 96 h; GP2D cells, 4 days, CellTiter-Glo luminescence; read-out: G12D 2D EC50
Description: Example B. 2D Cell Viability Assay
Compounds were tested in a 384-well format for their ability to inhibit the viability of GP2D (KRAS G12D) cells in 2D assays. Compounds were serially diluted (1:3) in DMSO. The LabCyte ECHO Acoustic dispenser system was used to pre-spot assay plates with 200 nL of test molecule per well. 1000 cells/well (40 μL volume per well) in RPMI medium with 10% FBS, and Penicillin-Streptomycin-Glutamine were plated in pre-spotted 384-well plates (Greiner, Catalog #781076) on the BioTEK EL406 liquid dispenser with a 5 μL dispensing cassette (BioTek 7170011). The plates were incubated at 37° C., 5% CO2 for 4 days before addition of CellTiter-Glo (CTG) reagent and measurement of luminescence signal. EC50 values were defined as the compound concentration that causes a 50% decrease in luminescence signal and were calculated using a sigmoidal dose-response model to generate curve fits.

Compound	EC50 [pM]
CCc1c(F)ccc2cc(O)cc(-c3c(F)c4c5c(nc(OC[C@@]67CCCN6C[C@H](F)C7)nc5c3F)N3C[C@H]5CC[C@H](N5)[C@H]3CCC4)c12 (atropisomer, axis not shown; (aR)) [Example 77-P, 4-((1S,4R,11R,15aR)-10,12-difluoro-8-(((2R,7aS)-2-fluorotetrahydro-1H-pyrrolizin-7a(5H)-yl)methoxy)-2,3,4,5,13,14,15,15a-octahydro-1H-1,4-epiminoazepino[1′,2′:1,8]azocino[2,3,4-de]quinazolin-11-yl)-5-ethyl-6-fluoronaphthalen-2-ol]	290
C#Cc1c(F)ccc2cc(O)cc(-c3c(F)c4c5c(nc(OC[C@]6(C)CN(C)CC[C@@H]6C(F)F)nc5c3F)N3C[C@H]5CC[C@@H]([C@H]3CCC4)N5Cc3oc(=O)oc3C)c12 (atropisomer, axis not shown; (aR)) [Example 78, 4-(((1S,4R,15aR)-8-(((3S,4S)-4-(difluoromethyl)-1,3-dimethylpiperidin-3-yl)methoxy)-11-((R)-8-ethynyl-7-fluoro-3-hydroxynaphthalen-1-yl)-10,12-difluoro-2,3,4,5,13,14,15,15a-octahydro-1H-1,4-epiminoazepino[1′,2′:1,8]azocino[2,3,4-de]quinazolin-16-yl)methyl)-5-methyl-1,3-dioxol-2-one]	80
Cc1oc(=O)oc1CN1[C@@H]2CC[C@H]1[C@@H]1[C@@H](C)Cc3c(Cl)c(-c4ccc(F)c5sc(N)c(C#N)c45)c(F)c4nc(OC[C@@]56CCCN5C[C@H](F)C6)nc(c34)N1C2 (atropisomer, axis not shown; (aS)) [Example 71, 2-amino-4-((1S,4R,11R,14S,14aS)-12-chloro-10-fluoro-8-(((2R,7aS)-2-fluorotetrahydro-1H-pyrrolizin-7a(5H)-yl)methoxy)-14-methyl-15-((5-methyl-2-oxo-1,3-dioxol-4-yl)methyl)-1,2,3,4,5,13,14,14a-octahydro-1,4-epiminoazepino[1′,2′:1,7]azepino[2,3,4-de]quinazolin-11-yl)-7-fluorobenzo[b]thiophene-3-carbonitrile]	410
C[C@H]1Cc2c(Cl)c(-c3ccc(F)c4sc(N)c(C#N)c34)c(F)c3nc(OC[C@@]45CCCN4C[C@H](F)C5)nc(c23)N2C[C@H]3CC[C@H](N3)[C@H]12 (atropisomer, axis not shown; (aS)) [Example 71-P, 2-amino-4-((1S,4R,11R,14S,14aS)-12-chloro-10-fluoro-8-(((2R,7aS)-2-fluorotetrahydro-1H-pyrrolizin-7a(5H)-yl)methoxy)-14-methyl-1,2,3,4,5,13,14,14a-octahydro-1,4-epiminoazepino[1′,2′:1,7]azepino[2,3,4-de]quinazolin-11-yl)-7-fluorobenzo[b]thiophene-3-carbonitrile]	180
C#Cc1c(F)ccc2cccc(-c3nc4c5c(nc(OC[C@@]67CCCN6C[C@H](F)C7)nc5c3F)N3C[C@H]5CC[C@@H]([C@H]3CCC4)N5Cc3oc(=O)oc3CCCCC)c12 [Example 20, 4-(((6aR,7S,10R)-2-(8-ethynyl-7-fluoronaphthalen-1-yl)-1-fluoro-13-(((2R,7aS)-2-fluorotetrahydro-1H-pyrrolizin-7a(5H)-yl)methoxy)-5,6,6a,7,8,9,10,11-octahydro-4H-3,11a,12,14,15-pentaaza-7,10-methanocyclohepta[4,5]cycloocta[1,2,3-de]naphthalen-15-yl)methyl)-5-pentyl-1,3-dioxol-2-one]	5000
C#Cc1c(F)ccc2cccc(-c3nc4c5c(nc(OC[C@@]67CCCN6C[C@H](F)C7)nc5c3F)N3C[C@H]5CC[C@@H]([C@H]3CCC4)N5Cc3oc(=O)oc3CCCCCC)c12 [Example 21, 4-(((6aR,7S,10R)-2-(8-ethynyl-7-fluoronaphthalen-1-yl)-1-fluoro-13-(((2R,7aS)-2-fluorotetrahydro-1H-pyrrolizin-7a(5H)-yl)methoxy)-5,6,6a,7,8,9,10,11-octahydro-4H-3,11a,12,14,15-pentaaza-7,10-methanocyclohepta[4,5]cycloocta[1,2,3-de]naphthalen-15-yl)methyl)-5-hexyl-1,3-dioxol-2-one]	5200
CCCCc1oc(=O)oc1CN1[C@@H]2CC[C@H]1[C@H]1CCCc3nc(-c4cc(O)cc5ccc(F)c(OC(F)(F)F)c45)c(F)c4nc(OC[C@@]56CCCN5C[C@H](F)C6)nc(c34)N1C2 [Example 22, 4-butyl-5-(((6aR,7S,10R)-1-fluoro-2-(7-fluoro-3-hydroxy-8-(trifluoromethoxy)naphthalen-1-yl)-13-(((2R,7aS)-2-fluorotetrahydro-1H-pyrrolizin-7a(5H)-yl)methoxy)-5,6,6a,7,8,9,10,11-octahydro-4H-3,11a,12,14,15-pentaaza-7,10-methanocyclohepta[4,5]cycloocta[1,2,3-de]naphthalen-15-yl)methyl)-1,3-dioxol-2-one]	850
CCCCCc1oc(=O)oc1CN1[C@@H]2CC[C@H]1[C@H]1CCCc3nc(-c4cc(O)cc5ccc(F)c(OC(F)(F)F)c45)c(F)c4nc(OC[C@@]56CCCN5C[C@H](F)C6)nc(c34)N1C2 [Example 23, 4-(((6aR,7S,10R)-1-fluoro-2-(7-fluoro-3-hydroxy-8-(trifluoromethoxy)naphthalen-1-yl)-13-(((2R,7aS)-2-fluorotetrahydro-1H-pyrrolizin-7a(5H)-yl)methoxy)-5,6,6a,7,8,9,10,11-octahydro-4H-3,11a,12,14,15-pentaaza-7,10-methanocyclohepta[4,5]cycloocta[1,2,3-de]naphthalen-15-yl)methyl)-5-pentyl-1,3-dioxol-2-one]	920
CCCCCCc1oc(=O)oc1CN1[C@@H]2CC[C@H]1[C@H]1CCCc3nc(-c4cc(O)cc5ccc(F)c(OC(F)(F)F)c45)c(F)c4nc(OC[C@@]56CCCN5C[C@H](F)C6)nc(c34)N1C2 [Example 24, 4-(((6aR,7S,10R)-1-fluoro-2-(7-fluoro-3-hydroxy-8-(trifluoromethoxy)naphthalen-1-yl)-13-(((2R,7aS)-2-fluorotetrahydro-1H-pyrrolizin-7a(5H)-yl)methoxy)-5,6,6a,7,8,9,10,11-octahydro-4H-3,11a,12,14,15-pentaaza-7,10-methanocyclohepta[4,5]cycloocta[1,2,3-de]naphthalen-15-yl)methyl)-5-hexyl-1,3-dioxol-2-one]	1100
C#Cc1c(F)ccc2cc(OC(=O)O[C@@H](C)C(C)C)cc(-c3nc4c5c(nc(OC[C@@]67CCCN6C[C@H](F)C7)nc5c3F)N3C[C@H]5CC[C@@H]([C@H]3CCC4)N5Cc3oc(=O)oc3C)c12 [Example 39, 5-ethynyl-6-fluoro-4-((6aR,7S,10R)-1-fluoro-13-(((2R,7aS)-2-fluorotetrahydro-1H-pyrrolizin-7a(5H)-yl)methoxy)-15-((5-methyl-2-oxo-1,3-dioxol-4-yl)methyl)-5,6,6a,7,8,9,10,11-octahydro-4H-3,11a,12,14,15-pentaaza-7,10-methanocyclohepta[4,5]cycloocta[1,2,3-de]naphthalen-2-yl)naphthalen-2-yl ((S)-3-methylbutan-2-yl) carbonate]	260
